Reference: paper PMC4655838, “Versatility in phospho-dependent molecular recognition of the XRCC1 and XRCC4 DNA-damage scaffolds by aprataxin-family FHA domains” (DNA Repair, 2015)
Read-outs that look alike come from different tables or passages of the source. Square brackets hold non-standard residues; d marks the D form. Peptide text beside a SMILES is read from it. pT = C[C@@H](OP(=O)(O)O)[C@H](N)C(=O)O; pS = N[C@@H](COP(=O)(O)O)C(=O)O

Legend:
Format in all cases: binding
[1] = target: T1, R42A Mutant of aprataxin FHA domain (Homo sapiens, UniProt Q7Z2E3, R56A); experiment: ITC of R42A mutant of aprataxin FHA domain with XRCC1 and XRCC4 phosphopeptides; conditions: 22 °C, 50 mM HEPES pH 7.5, 150 mM NaCl, 5 mM β-mercaptoethanol, single-site model
T1 construct: aprataxin residues 1–105; GST (pGEX-6P-1) (N, cleaved yes); made in house; host or cells: Escherichia coli BL21 (DE3)
Description: (§1) The genes for aprataxin residues 1–105 and APLF residues 1–106 were amplified using primer sets which incorporated 5′ BamHI and 3′ XhoI sites. PCR products and pGEX-6P-1 vector were digested with BamHI and XhoI and religated. All point mutations were generated using a QuickChange Site-Directed Mutagenesis Kit (Stratagene) following the manufacturer's recommended protocol.
(§2) For expression, the pGEX-6P-1/aprataxin-FHA constructs were transformed into Escherichia coli strain BL21 (DE3) and the pGEX-6P-1/APLF-FHA constructs transformed into the strain Rosetta2 (DE3). Cells were grown in LB at 37 °C to an A600 of 0.5, induced with 0.4 mM isopropyl 1-thio-β-D-galactopyranoside and incubated at 18 °C for a further 16 h before harvesting. Cells were lysed by sonication and clarified by centrifugation (20,000 × g × 30 min). The supernatant was applied to a glutathione-4B resin (Amersham) and cleaved from the resin with rhinovirus 3C protease. Proteins were purified further by gel-filtration chromatography on a Superdex 75 matrix in 20 mM Tris pH 7.5, 150 mM NaCl, 5 mM DTT. Selenomethionine-labelled APLF L91 M protein was expressed in Rosetta2 (DE3) cells cultured in SelenoMet base media and nutrients supplemented with seleno-methionine solution (Molecular Dimensions Ltd.) and purified as the wild-type protein.
(§3) Phosphopeptides based on the XRCC1 sequence 515-YAGSTDENTDSEEHQ-529 and the XRCC4 sequence 229-YDESTDEES-237 were synthesised with amidated C-termini to avoid potential end-effects of a free carboxy-terminus by Dr. W. Mawby (University of Bristol), purified by HPLC and characterised by mass spectrometry. FHA-phosphopeptide binding was quantified by isothermal titration calorimetry using a Microcal Omega VP-ITC calorimeter (MicroCal Inc., Northampton, MA). Protein was dialysed against ITC buffer (50 mM HEPES pH 7.5, 150 mM NaCl, 5 mM β-mercaptoethanol) and peptides were dissolved in the dialysis buffer. Experiments were carried out at 22 °C and involved 30 successive 10 μl injections of peptide solution into a sample cell containing protein solution. Titrations with XRCC1 peptides used peptide at 1 mM and protein at 100 μM and titrations with XRCC4 peptides used peptide at 300 μm and protein at 30 μM. Heats of dilution were subtracted and binding isotherms were plotted and analysed with MicroCal origin version 7.0, assuming a single-site binding model.

[2] = target: T2, wild-type aprataxin FHA domain (Homo sapiens, UniProt Q7Z2E3); experiment: ITC of wild-type aprataxin FHA domain with XRCC1 and XRCC4 phosphopeptides; conditions: 22 °C, 50 mM HEPES pH 7.5, 150 mM NaCl, 5 mM β-mercaptoethanol, peptide in syringe, XRCC1 peptides 1 mM into 100 μM protein, XRCC4 peptides 300 μM into 30 μM protein, single-site model, representative of triplicate
T2 construct: aprataxin residues 1–105; GST (pGEX-6P-1) (N, cleaved yes); made in house; host or cells: Escherichia coli BL21 (DE3)
Description: as §1, §2, §3

[3] = target: T3, K38A Mutant of aprataxin FHA domain (Homo sapiens, UniProt Q7Z2E3, K52A); experiment: ITC of K38A mutant of aprataxin FHA domain with XRCC1 and XRCC4 phosphopeptides; conditions: 22 °C, 50 mM HEPES pH 7.5, 150 mM NaCl, 5 mM β-mercaptoethanol, single-site model
T3 construct: aprataxin residues 1–105; GST (pGEX-6P-1) (N, cleaved yes); made in house; host or cells: Escherichia coli BL21 (DE3)
Description: as §1, §2, §3

aprataxin FHA domain = target: T4, aprataxin FHA domain (Homo sapiens, UniProt Q7Z2E3); experiment: NMR (1H-SOFAST-HMQC) titrations of aprataxin FHA domain with XRCC1 phosphopeptides; conditions: NMR titration, 22 °C
T4 construct: aprataxin residues 1–105; GST (pGEX-6P-1) (N, cleaved yes); made in house; host or cells: Escherichia coli BL21 (DE3)
Procedure: NMR experiments were carried out at 22 °C on Bruker Avance II+ 600 MHz and Avance III 700 MHz spectrometers, each equipped with a cryogenic triple-resonance probe. Protein and peptides were prepared in NMR buffer (20 mM Na Acetate pH 5.8, 50 mM NaCl, 2 mM DTT). Three-dimensional HNCA, HNCO, HNCACB and CBCA(CO)NH experiments were performed to obtain backbone assignments. NMR titration experiments were carried out by adding the unlabelled XRCC1 peptides to ^15N-labeled aprataxin FHA domain. The initial protein concentration was 92 μM and volumes of 2 mM stock solution of peptide were added until the protein:peptide ratio was 1:4. ^1H-SOFAST-HMQC [36] spectra were measured after each titration step. All spectra were processed using nmrPipe, and analysed using CARA/NEASY [38]. The weighted chemical shift change (in ppm units) of each amide proton (ΔδHN) and nitrogen (ΔδN) was calculated according to the equation: Δδtotal = [(ΔδHNWHN)^2 + (ΔδNWN)^2]^1/2 with WHN = 1 and WN = 0.154 [39]. Weighted chemical shifts for residues D37, V45, Q46, V61 and V63 were plotted against peptide concentration to determine individual Kds and averaged to determine the apparent Kd.

[4] = target: T5, wild-type APLF FHA domain (Homo sapiens, UniProt Q8IW19); experiment: ITC of wild-type APLF FHA domain with XRCC1 and XRCC4 phosphopeptides; conditions: 22 °C, 50 mM HEPES pH 7.5, 150 mM NaCl, 5 mM β-mercaptoethanol, peptide in syringe, XRCC1 peptides 1 mM into 100 μM protein, XRCC4 peptides 300 μM into 30 μM protein, single-site model, representative of triplicate
T5 construct: APLF residues 1–106; GST (pGEX-6P-1) (N, cleaved yes); made in house; host or cells: Escherichia coli Rosetta2 (DE3)
T5 sequence (Q8IW19 1-106): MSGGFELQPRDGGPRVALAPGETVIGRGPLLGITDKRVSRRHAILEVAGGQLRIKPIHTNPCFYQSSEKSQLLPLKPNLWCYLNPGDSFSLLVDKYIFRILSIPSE
Description: as §1
For expression, the pGEX-6P-1/aprataxin-FHA constructs were transformed into Escherichia coli strain BL21 (DE3) and the pGEX-6P-1/APLF-FHA constructs transformed into the strain Rosetta2 (DE3). Cells were grown in LB at 37 °C to an A600 of 0.5, induced with 0.4 mM isopropyl 1-thio-β-D-galactopyranoside and incubated at 18 °C for a further 16 h before harvesting. […]
Phosphopeptides based on the XRCC1 sequence 515-YAGSTDENTDSEEHQ-529 and the XRCC4 sequence 229-YDESTDEES-237 were synthesised with amidated C-termini to avoid potential end-effects of a free carboxy-terminus by Dr. W. Mawby (University of Bristol), purified by HPLC and characterised by mass spectrometry. FHA-phosphopeptide binding was quantified by isothermal titration calorimetry using a Microcal Omega VP-ITC calorimeter (MicroCal Inc., Northampton, MA). […] Heats of dilution were subtracted and binding isotherms were plotted and analysed with MicroCal origin version 7.0, assuming a single-site binding model.

T1 sequence (Q7Z2E3 15-119 R56A): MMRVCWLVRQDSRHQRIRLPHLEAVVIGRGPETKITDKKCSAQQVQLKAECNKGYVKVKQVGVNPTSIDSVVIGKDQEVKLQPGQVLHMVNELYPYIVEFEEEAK
T4 sequence (Q7Z2E3 15-119): as the sequence (Q7Z2E3 15-119 R56A) above, with A42R counted along it
T2 sequence (Q7Z2E3 15-119): as the sequence (Q7Z2E3 15-119 R56A) above, with A42R counted along it
T3 sequence (Q7Z2E3 15-119 K52A): as the sequence (Q7Z2E3 15-119 R56A) above, with K38A, A42R counted along it

For `C[C@@H](OP(=O)(O)O)[C@H](NC(=O)[C@H](COP(=O)(O)O)NC(=O)[C@H](CCC(=O)O)NC(=O)[C@H](CC(=O)O)NC(=O)[C@@H](N)Cc1ccc(O)cc1)C(=O)N[C@@H](CC(=O)O)C(=O)N[C@@H](CCC(=O)O)C(=O)N[C@@H](CCC(=O)O)C(=O)N[C@@H](CO)C(N)=O` [YDEpSpTDEES] (HELM PEPTIDE1{Y.D.E.[O=C([C@H](COP(=O)(O)O)N[*:1])[*:2]].[C[C@@H](OP(=O)(O)O)[C@H](N[*:1])C(=O)[*:2]].D.E.E.S.[am]}$$$$V2.0), the Kd [1] was no less than 100 µM, the Kd [2] was 0.25 ± 0.02 µM and the Kd [3] was 1.9 ± 0.06 µM.
For `C[C@@H](OP(=O)(O)O)[C@H](NC(=O)[C@H](CO)NC(=O)[C@H](CCC(=O)O)NC(=O)[C@H](CC(=O)O)NC(=O)[C@@H](N)Cc1ccc(O)cc1)C(=O)N[C@@H](CC(=O)O)C(=O)N[C@@H](CCC(=O)O)C(=O)N[C@@H](CCC(=O)O)C(=O)N[C@@H](CO)C(N)=O` [YDESpTDEES] (HELM PEPTIDE1{Y.D.E.S.[C[C@@H](OP(=O)(O)O)[C@H](N[*:1])C(=O)[*:2]].D.E.E.S.[am]}$$$$V2.0), the Kd [1] was no less than 100 µM, the Kd [2] was 2.1 ± 0.08 µM and the Kd [3] was 6.8 ± 0.5 µM.
In the case of `C[C@H](NC(=O)[C@@H](N)Cc1ccc(O)cc1)C(=O)NCC(=O)N[C@@H](COP(=O)(O)O)C(=O)N[C@H](C(=O)N[C@@H](CC(=O)O)C(=O)N[C@@H](CCC(=O)O)C(=O)N[C@@H](CC(N)=O)C(=O)N[C@H](C(=O)N[C@@H](CC(=O)O)C(=O)N[C@@H](CO)C(=O)N[C@@H](CCC(=O)O)C(=O)N[C@@H](CCC(=O)O)C(=O)N[C@@H](Cc1c[nH]cn1)C(=O)N[C@@H](CCC(N)=O)C(N)=O)[C@@H](C)O)[C@@H](C)OP(=O)(O)O` [YAGpSpTDENTDSEEHQ] (HELM PEPTIDE1{Y.A.G.[O=C([C@H](COP(=O)(O)O)N[*:1])[*:2]].[C[C@@H](OP(=O)(O)O)[C@H](N[*:1])C(=O)[*:2]].D.E.N.T.D.S.E.E.H.Q.[am]}$$$$V2.0), the Kd [1] is reported as 53.2 ± 5.8 µM, the Kd (aprataxin FHA domain; 20 mM Na Acetate pH 5.8, 50 mM NaCl, 2 mM DTT, 92 µM 15N aprataxin FHA, 2 mM peptide stock, read-out: Kd from weighted chemical shift of residue Asp37) is reported as 2 µM and the Kd (aprataxin FHA domain; pH 5.8, 92 µM aprataxin FHA, read-out: Kd from weighted chemical shift of residue Gln46) is reported as 1.7 µM. For the same compound, the Kd (aprataxin FHA domain; pH 5.8, 92 µM aprataxin FHA, read-out: Kd from weighted chemical shift of residue Val45) was 2.5 µM, the Kd (aprataxin FHA domain; pH 5.8, 92 µM aprataxin FHA, read-out: Kd from weighted chemical shift of residue Val61) was 1.6 µM and the Kd (aprataxin FHA domain; pH 5.8, 92 µM aprataxin FHA, read-out: Kd from weighted chemical shift of residue Val63) was 2.1 µM. It also gave a Kd [2] of 1.5 ± 0.06 µM and a Kd [3] of 12.8 ± 0.7 µM.
Work on `C[C@H](NC(=O)[C@@H](N)Cc1ccc(O)cc1)C(=O)NCC(=O)N[C@@H](COP(=O)(O)O)C(=O)N[C@H](C(=O)N[C@@H](CC(=O)O)C(=O)N[C@@H](CCC(=O)O)C(=O)N[C@@H](CC(N)=O)C(=O)N[C@H](C(=O)N[C@@H](CC(=O)O)C(=O)N[C@@H](COP(=O)(O)O)C(=O)N[C@@H](CCC(=O)O)C(=O)N[C@@H](CCC(=O)O)C(=O)N[C@@H](Cc1c[nH]cn1)C(=O)N[C@@H](CCC(N)=O)C(N)=O)[C@@H](C)OP(=O)(O)O)[C@@H](C)OP(=O)(O)O` [YAGpSpTDENpTDpSEEHQ] (H-YAG[pS][pT]DEN[pT]D[pS]EEHQ-NH2) yielded a Kd [4] of 11 ± 0.3 µM and a Kd [2] of 0.87 ± 0.05 µM.
